Data from US20110076258A1, “METHODS OF MODULATING T CELL- DEPENDENT IMMUNE RESPONSES” (Converge Biotech Inc., priority 2008, published 2011).
Entries after “also recorded” stand apart in the source; their conditions may differ.

Key:
NFAT1 = NFAT1 nuclear localization after T cell stimulation; assay type: cell-based, mouse
Description: (§1) In order to distinguish between TCR dependent and independent ERK activation, TCR signaling was blocked at 30 min after CD3 activation with the tyrosine kinase inhibitor PP2, which inhibits TCR dependent Ick/fyn src-like kinase activity.
NFAT nuclear translocation without concomitant MAPK activation, which can be obtained by ionomycin treatment, implements a transcriptional program leading to T cell anergy (Macian et al., Cell 109:719-731 (2002)). […] Then, we hypothesized that activation of T cells in the presence of oATP could induce T cell anergy.

ERK = ERK phosphorylation time course after CD3 stimulation, TCR signaling blocked with PP2 at 30 min; assay type: cell-based, mouse; settings: added in combination with PP2
Description: After 30 min of stimulation, cells were either left untreated (first panel on the left), or treated with the src-like kinase inhibitor PP2 either alone (second panel) or in combination with oATP (third panel) or ARL (fourth panel).
as §1

mouse T cells = assay: IL-2 secretion by ELISA; assay type: cell-based
[1] = tested on: naïve CD4^+ T cells / CD4^+CD25^+ natural Treg cells; assay: Treg differentiation and expansion in vitro (anti-CD3, irradiated splenocytes, IL-2); assay type: cell-based
Description: Treg cell generation was analyzed after 7-10 days of culture by flow cytometry.

[2] = tested on: T cells stimulated by anti-CD3 under Th17 skewing conditions; assay: Th17 skewing conditions (TGFβ and IL-6), Foxp3 and RORγT expression; assay type: cell-based
Description: Treatment with oATP at 100 μM inhibits Th17 differentiation and promotes Foxp3 expression. […] The absolute number of CD4^+CD25^high cells expressing Foxp3 by FACS analysis was increased (FIG. 12B). Moreover, the de-differentiation of sorted CD4^+CD25^high natural Treg cells to the Th17 lineage following stimulation (Koenen et al., Blood 112(6):2340-2352 (2008)) was prevented by oATP at 100 μM (FIG. 12C).

mouse model of IBD = assay: IBD model with insufficient number of adoptively transferred Treg cells; assay type: in vivo
DBA/1 mice = assay: Collagen-induced arthritis model of rheumatoid arthritis; assay type: in vivo, mouse
[3] = Th17 skewing conditions, oATP 100 μM

Nc1ncnc2c1ncn2[C@@H](C=O)O[C@@H](C=O)COP(=O)(O)OP(=O)(O)OP(=O)(O)O [oATP]
nuclear localization of NFAT1 (NFAT1): did not significantly affect
ERK phosphorylation / activity (ERK): significant inhibition; also recorded: almost completely abolished
IL-2 secretion (mouse T cells): strongly inhibited
Foxp3 by quantitative RT-PCR ([1]; first 6 days after anti-CD3 stimulation): progressive upregulation
percentage of CD4^+CD25^highFoxp3^+ Treg cells ([1]; naïve CD4^+ T cells, oATP 100 μM): significantly enhanced
expansion of Treg cells, Foxp3 expression level ([1]; sorted CD4^+CD25^+ natural Treg cells, oATP 100 μM): higher expression levels of Foxp3
absolute number of CD4^+CD25^high cells expressing Foxp3 (FACS) ([2]; Th17 skewing conditions): increased
expression of Foxp3 (quantitative RT-PCR) [2, 3]: gradually increased
expression of RORγT (quantitative RT-PCR) [2, 3]: suppressing
Th17 differentiation ([2]; oATP 100 μM): inhibits
de-differentiation of sorted CD4^+CD25^high natural Treg cells to the Th17 lineage ([2]; oATP 100 μM): prevented
Foxp3 expression in Treg cells (mouse model of IBD; day 28, daily 100 μl of 3 mM oATP i.v. from day 14): increased
bowel inflammation (mouse model of IBD; mouse, in vivo): no signs of bowel inflammation
effector/memory T cells in mesenteric lymph nodes (mouse model of IBD; mouse, in vivo): reduced counts
ratio of Treg/EM cells in mesenteric lymph nodes (mouse model of IBD; mouse, in vivo): not significantly changed
spleen and mesenteric lymph nodes size (mouse model of IBD; mouse, in vivo): no increase
clinical score variation versus control group (DBA/1 mice; 3 mM in 100 μl i.v., after the initial five days of treatment): consistently lower
collagen-specific antibodies (type II collagen ELISA) (DBA/1 mice; versus control mice): decreased
